Data from CN110668932A, “一种共晶体及制备方法、包含共晶体的药物组合物及用途” (Individual, priority 2019, dated 2020).

Tests used:
[1] = tested on: human gastric cancer SGC-7901 cells, human liver cancer Bet-7402 cells, human lung cancer H460 cells (人胃癌SGC-7901细胞、人肝癌Bet-7402细胞、人肺癌H460细胞); assay: In vivo antitumour experiment in mice (Experimental Example 1); set-up: species or system mouse; conditions: 2 mg/kg active ingredient, oral, twice daily, 15-20 days; for tumor size / weight vs negative control group: compared with negative control group; for tumor inhibition effect: mice
[2] = tested on: metabolic syndrome model rats (代谢综合征模型大鼠); assay: Effect in metabolic syndrome model rats (Experimental Example 4); assay type: in vivo, rat; conditions: 10 mL/kg, once daily, gavage, 8 weeks; for serum LDL-C level vs control group / serum TG level vs control group: compared with control group (standard feed); for serum LDL-C level vs model group / serum TG level vs model group: compared with model group
[3] = Liver injury side effect experiment in mice, ALT and AST (Experimental Example 5); assay type: in vivo, mouse; conditions: 0.012 g/kg, gavage, 2 weeks, Kunming mice; for ALT / ASL: serum, compared with normal control group

Compound	tumor size / weight vs negative control group [1]	tumor inhibition effect [1]	serum LDL-C level vs control group [2]	serum TG level vs control group [2]	serum LDL-C level vs model group [2]	serum TG level vs model group [2]	liver injury effect [3]	ALT [3]	ASL [3]
COc1cc(CCC(=O)CC(=O)CCc2ccc(O)c(OC)c2)ccc1O [SHCUR, 四氢姜黄素]	肿瘤明显减小,低于阴性对照组	具有较好的抑制肿瘤的效果	较高	较高	较低	较低	没有明显肝损伤作用	与正常对照组相近	与正常对照组相近
COc1cc(CCC(=O)CC(=O)CCc2ccc(O)cc2)ccc1O [SHDMCUR, 四氢去甲氧基姜黄素]	肿瘤明显减小,低于阴性对照组	具有较好的抑制肿瘤的效果	较高	较高	较低	较低	没有明显肝损伤作用	与正常对照组相近	与正常对照组相近
O=C(CCc1ccc(O)cc1)CC(=O)CCc1ccc(O)cc1 [四氢双去甲氧基姜黄素]	肿瘤明显减小,低于阴性对照组	具有较好的抑制肿瘤的效果	较高	较高	较低	较低	没有明显肝损伤作用	与正常对照组相近	与正常对照组相近
CC(=O)O[C@H]1C(=O)[C@@]2(C)[C@H]([C@H](OC(=O)c3ccccc3)[C@]3(O)C[C@H](OC(=O)[C@H](O)[C@@H](NC(=O)c4ccccc4)c4ccccc4)C(C)=C1C3(C)C)[C@]1(OC(C)=O)CO[C@@H]1C[C@@H]2O [紫杉醇]	肿瘤明显减小,低于阴性对照组	具有较好的抑制肿瘤的效果							
